From patent US4272437A, “Antibacterial agents, and 4-thio azetidinone intermediates” (priority 1979, dated 1981)
Converted amounts (≈) assume the structure as drawn. Like-named read-outs stand apart in the source and are kept apart here.

What was measured:
Str. pyogenes A-9604 = experiment: MIC, tube dilution, Streptococcus pyogenes A9604; assay type: cell-based; conditions: Streptococcus pyogenes, A9604, Str. pyogenes A9604; overnight 37° C., Nutrient Broth; read-out: Minimum Inhibitory Concentration (M.I.C.)
From the text: (§1) Representative compounds of the present invention were subjected to in vitro antibiotic screening against a variety of microorganisms.

E. coli A-20341-1 = experiment: MIC, tube dilution, Escherichia coli A20341-1; assay type: cell-based
From the text: as §1

Ent. cloacae A-9656 = experiment: MIC, tube dilution, Enterobacter cloacae A9656; assay type: cell-based; conditions: overnight 37° C., read-out: Minimum Inhibitory Concentration (M.I.C.)
From the text: as §1

Pr. mirabilis A-9900 = experiment: MIC, tube dilution, Proteus mirabilis A9900; assay type: cell-based; conditions: Proteus mirabilis, A9900, Proteus mirabilis A9900; overnight 37° C.; read-out: Minimum Inhibitory Concentration (M.I.C.)
From the text: as §1

Str. pneumoniae A-9585 = experiment: MIC, tube dilution, Streptococcus pneumoniae A9585; assay type: cell-based; conditions: Streptococcus pneumoniae, A9585, Str. pneumoniae A9585; overnight 37° C., Nutrient Broth; read-out: Minimum Inhibitory Concentration (M.I.C.)
From the text: as §1

[1] = tested on: Providencia stuartii A21205; experiment: MIC, tube dilution, Providencia stuartii (Pr. rettgeri) A21205; assay type: cell-based; conditions: Providencia stuartii
From the text: as §1

K. pneumoniae A-15130 = experiment: MIC, tube dilution, Klebsiella pneumoniae A15130; assay type: cell-based; conditions: Klebsiella pneumoniae, A15130, K. pneumoniae A15130; overnight 37° C.; read-out: Minimum Inhibitory Concentration (M.I.C.)
From the text: as §1

Pr. morganii A-15153 = experiment: MIC, tube dilution, Proteus morganii A15153; assay type: cell-based; conditions: Morganella morganii, A15153, Proteus morganii A15153; overnight 37° C.; read-out: Minimum Inhibitory Concentration (M.I.C.)
From the text: as §1

[2] = tested on: Klebsiella species A20468; experiment: MIC, tube dilution, Klebsiella species A20468; assay type: cell-based; conditions: Klebsiella species (K. pneumoniae) A20468; overnight 37° C.; read-out: Minimum Inhibitory Concentration (M.I.C.)
From the text: as §1

E. coli A-15119 = experiment: MIC, tube dilution, Escherichia coli A15119; assay type: cell-based; conditions: Escherichia coli, A15119, E. coli A15119; overnight 37° C.; read-out: Minimum Inhibitory Concentration (M.I.C.)
From the text: as §1

Ps. aeruginosa A-9843A = experiment: MIC, tube dilution, Pseudomonas aeruginosa A9843A; assay type: cell-based; conditions: Pseudomonas aeruginosa, A9843A, read-out: Minimum Inhibitory Concentration (M.I.C.), Pseudomonas aeruginosa A9843A; overnight 37° C.
From the text: as §1

Str. faecalis A-20688 = experiment: MIC, tube dilution, Streptococcus faecalis A20688; assay type: cell-based; conditions: Enterococcus faecalis, A20688, Str. faecalis A20688; overnight 37° C.; read-out: Minimum Inhibitory Concentration (M.I.C.)
From the text: as §1

Staph. aureus A-9537 = experiment: MIC, tube dilution, Staphylococcus aureus A9537; assay type: cell-based; conditions: Staphylococcus aureus, A9537, Staph. aureus A9537; overnight 37° C., Nutrient Broth; read-out: Minimum Inhibitory Concentration (M.I.C.)
From the text: as §1

Ent. cloacae A-9659 = experiment: MIC, tube dilution, Enterobacter cloacae A9659; assay type: cell-based; conditions: Enterobacter cloacae, A9659, Enterobacter cloacae A9659; overnight 37° C.; read-out: Minimum Inhibitory Concentration (M.I.C.)
From the text: as §1

Ser. marcescens A-20019 = experiment: MIC, tube dilution, Serratia marcescens A20019; assay type: cell-based; conditions: Serratia marcescens, A20019, Serratia marcescens A20019; overnight 37° C.; read-out: Minimum Inhibitory Concentration (M.I.C.)
From the text: as §1

Pr. vulgaris A-9716 = experiment: MIC, tube dilution, Proteus vulgaris / Proteus mirabilis A9716; assay type: cell-based, Proteus vulgaris (name changed to Proteus mirabilis); conditions: Proteus vulgaris, overnight 37° C.
From the text: as §1

[3] = tested on: Staph. aureus (Pen-Res) A-9606; experiment: MIC, tube dilution, Staphylococcus aureus A9606 (Pen-Res); assay type: cell-based; conditions: Staphylococcus aureus, overnight 37° C.
From the text: as §1

[4] = tested on: Staph. aureus A-9537 and 50% serum; experiment: MIC, tube dilution, Staph. aureus A9537 + 50% serum; assay type: cell-based, Staphylococcus aureus; conditions: Staphylococcus aureus, overnight 37° C., read-out: Minimum Inhibitory Concentration (M.I.C.)
From the text: as §1

Ps. aeruginosa A-21213 = experiment: MIC, tube dilution, Pseudomonas aeruginosa A21213; assay type: cell-based; conditions: Pseudomonas aeruginosa A21213; overnight 37° C.; read-out: Minimum Inhibitory Concentration (M.I.C.)
From the text: as §1

[5] = tested on: Staph. aureus (Meth-Res) A-15097; experiment: MIC, tube dilution, Staphylococcus aureus A15097 (Meth-Res); assay type: cell-based; conditions: Staphylococcus aureus, overnight 37° C.
From the text: as §1

[6] = Escherichia coli, A203411; E. coli A20341-1; overnight 37° C.; read-out: Minimum Inhibitory Concentration (M.I.C.)
[7] = read-out: Minimum Inhibitory Concentration (M.I.C.), Staph. aureus A15097 (Meth-Res)
[8] = Enterobacter cloacae, A9656, Enterobacter cloacae A9656
[9] = A21205, Providencia stuartii (Pr. rettgeri) A21205, overnight 37° C., read-out: Minimum Inhibitory Concentration (M.I.C.)
[10] = A9716, Proteus vulgaris / Proteus mirabilis A9716, read-out: Minimum Inhibitory Concentration (M.I.C.)
[11] = Staph. aureus A9606 (Pen-Res), read-out: Minimum Inhibitory Concentration (M.I.C.)
[12] = Staph. aureus A15097 (Meth-Res), read-out: Minimum Inhibitory Concentration (M.I.C.)

SMILES | MIC (Str. pyogenes A-9604) | MIC (E. coli A-20341-1; [6]) | MIC (Pr. mirabilis A-9900) | MIC (Str. pneumoniae A-9585) | MIC (K. pneumoniae A-15130) | MIC (Pr. morganii A-15153) | MIC [2] | MIC (E. coli A-15119) | MIC (Ps. aeruginosa A-9843A) | MIC (Str. faecalis A-20688) | MIC (Staph. aureus A-9537) | MIC (Ent. cloacae A-9659) | MIC (Ser. marcescens A-20019) | MIC [4] | MIC (Ps. aeruginosa A-21213) | MIC [5, 7] | MIC (Ent. cloacae A-9656; [8]) | MIC [1, 9] | MIC (Pr. vulgaris A-9716; [10]) | MIC [3, 11] | also measured
COCC1=C(C(=O)[O-])N2C(=O)C[C@H]2S1.[Na+] [Preparation 6, Sodium 2-Methoxymethylpenem-3-carboxylate] | 0.25 µg/mL | 125 µg/mL | 2 µg/mL | 0.06 µg/mL | 8 µg/mL | 4 µg/mL | > 125 µg/mL | 2 µg/mL | > 125 µg/mL | 32 µg/mL | 0.5 µg/mL | 4 µg/mL | 4 µg/mL | 32 µg/mL | > 125 µg/mL | > 125 µg/mL |  |  |  |  | MIC (Ent. cloacae A-9656; Enterobacter cloacae A9656): 8 µg/mL; MIC ([1]; A21205, read-out: Minimum Inhibitory Concentration (M.I.C.)): 2 µg/mL; MIC (Pr. vulgaris A-9716; A9716, read-out: Minimum Inhibitory Concentration (M.I.C.), Proteus vulgaris / Proteus mirabilis A9716): 2 µg/mL; MIC ([3]; read-out: Minimum Inhibitory Concentration (M.I.C.), Staph. aureus A9606 (Pen-Res)): 2 µg/mL
O=C(O)C1=C(Cc2cccs2)SC2CC(=O)N12 (centres unmarked) [Preparation 8, 2-(2'-Thienyl)methyl-penem-3-carboxylic Acid] | 0.03 µg/mL (≈ 0.112 µM) | > 125 µg/mL | 0.5 µg/mL (≈ 1.87 µM) | 0.016 µg/mL (≈ 0.0599 µM) | 32 µg/mL (≈ 120 µM) | 1 µg/mL (≈ 3.74 µM) | > 125 µg/mL | 1 µg/mL (≈ 3.74 µM) | > 125 µg/mL | 32 µg/mL (≈ 120 µM) | < 0.008 µg/mL | 16 µg/mL (≈ 59.9 µM) | 32 µg/mL (≈ 120 µM) | > 63 µg/mL | > 125 µg/mL | > 125 µg/mL | 16 µg/mL (≈ 59.9 µM) | 1 µg/mL (≈ 3.74 µM) | 1 µg/mL (≈ 3.74 µM) | 4 µg/mL (≈ 15 µM) | 
CCC1=C(C(=O)O)N2C(=O)C[C@H]2S1 [Preparation 10, 2-Ethylpenem-3-carboxylic Acid] | 0.5 µg/mL (≈ 2.51 µM) | 125 µg/mL (≈ 627 µM) | 4 µg/mL (≈ 20.1 µM) | 0.03 µg/mL (≈ 0.151 µM) | 8 µg/mL (≈ 40.2 µM) | 8 µg/mL (≈ 40.2 µM) | > 125 µg/mL | 4 µg/mL (≈ 20.1 µM) | > 125 µg/mL | 32 µg/mL (≈ 161 µM) | 0.13 µg/mL (≈ 0.653 µM) | 16 µg/mL (≈ 80.3 µM) | 4 µg/mL (≈ 20.1 µM) | 16 µg/mL | 125 µg/mL (≈ 627 µM) |  | 16 µg/mL (≈ 80.3 µM) | 4 µg/mL (≈ 20.1 µM) | 4 µg/mL (≈ 20.1 µM) | 0.5 µg/mL (≈ 2.51 µM) | MIC [5, 12]: 0.5 µg/mL (≈ 2.51 µM)
O=C(O)CCC1=C(C(=O)O)N2C(=O)CC2S1 (centres unmarked) [Preparation 11, Disodium 2-(2-carboxyethyl)penem-3-carboxylate] | 4 µg/mL |  | 4 µg/mL | 0.13 µg/mL | 63 µg/mL | 63 µg/mL | > 125 µg/mL | 16 µg/mL | > 125 µg/mL | 125 µg/mL | 16 µg/mL | 63 µg/mL | 4 µg/mL | > 63 µg/mL | > 125 µg/mL |  | 63 µg/mL | 1 µg/mL | 4 µg/mL | 32 µg/mL | MIC (E. coli A-20341-1; Escherichia coli, A203411, E. coli A20341-1; overnight 37° C.; read-out: Minimum Inhibitory Concentration (M.I.C.)): 63 µg/mL; MIC [5, 12]: 63 µg/mL
